Test results from ChEMBL document CHEMBL4304794.
The source made the active and inactive calls. The rule behind the calls is not given here.

Experiments:
[1] = biological target: Programmed cell death protein 1 (Homo sapiens) (UniProt Q15116); assay: Binding affinity to biotinylated recombinant human C-terminal FC -tagged PD1 (25 to 167 residues) at 0.3 to 300 uM by SPR analysis
[2] = biological target: Programmed cell death 1 ligand 1 (Mus musculus) (UniProt Q9EP73); assay: Inhibition of recombinant mouse N-terminal PDL1 (19 to 238 residues) assessed as recovery of mouse splenocyte proliferation at 100 nM by CFSE-based FACS analysis relative to control
Programmed cell death 1 ligand 1 (Mus musculus), sequence (Q9EP73 whole entry, the tested form may be a part): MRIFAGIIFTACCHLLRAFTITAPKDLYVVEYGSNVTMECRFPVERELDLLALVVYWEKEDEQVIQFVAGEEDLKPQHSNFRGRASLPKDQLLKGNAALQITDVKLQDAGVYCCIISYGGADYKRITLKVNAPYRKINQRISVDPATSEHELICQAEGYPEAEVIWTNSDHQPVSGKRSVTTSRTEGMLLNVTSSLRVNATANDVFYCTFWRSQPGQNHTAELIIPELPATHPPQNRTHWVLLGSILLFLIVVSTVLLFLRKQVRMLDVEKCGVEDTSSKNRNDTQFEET

[3] = biological target: Programmed cell death 1 ligand 1 (Homo sapiens) (UniProt Q9NZQ7); assay: Inhibition of PDL1 in human […] cells assessed as recovery of mouse splenocyte proliferation at 100 nM by CFSE-based FACS analysis relative to control; format: cell-based
Programmed cell death 1 ligand 1 (Homo sapiens), sequence (Q9NZQ7 whole entry): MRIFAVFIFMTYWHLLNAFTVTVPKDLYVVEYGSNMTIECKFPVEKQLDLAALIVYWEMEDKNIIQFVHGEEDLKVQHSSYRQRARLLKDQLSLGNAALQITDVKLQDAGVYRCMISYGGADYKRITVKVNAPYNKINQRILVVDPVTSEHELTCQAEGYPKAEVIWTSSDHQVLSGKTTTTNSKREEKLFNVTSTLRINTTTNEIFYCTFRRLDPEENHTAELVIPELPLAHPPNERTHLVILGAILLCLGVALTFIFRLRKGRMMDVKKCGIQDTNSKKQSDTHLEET

Programmed cell death protein 1 (Homo sapiens), sequence (Q15116 whole entry, the tested form may be a part): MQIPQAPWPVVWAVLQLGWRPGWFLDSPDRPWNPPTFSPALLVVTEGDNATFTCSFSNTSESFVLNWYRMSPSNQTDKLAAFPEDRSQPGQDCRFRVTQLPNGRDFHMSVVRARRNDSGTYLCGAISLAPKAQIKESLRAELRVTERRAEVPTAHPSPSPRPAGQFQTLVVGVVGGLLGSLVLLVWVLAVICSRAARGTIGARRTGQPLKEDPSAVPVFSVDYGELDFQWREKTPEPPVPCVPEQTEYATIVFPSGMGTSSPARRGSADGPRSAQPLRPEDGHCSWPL

Compound	Activity [1]	inhibition [2]	inhibition [3]
C#CC[C@H](NC(=O)N[C@H](C(=O)O)[C@@H](C)O)c1nc(-c2cnccn2)no1	inactive	92%	–
NC(=O)C[C@H](N)c1nc([C@@H](N)CO)no1	inactive	93%	–
C[C@@H](O)[C@H](NC(=O)N[C@@H](CC(N)=O)C(=O)NNC(=O)[C@@H](N)CO)C(=O)O	inactive	–	68%
